This note sets out measurements from patent publication US12630532B2, “Indole-substituted quinolines and their combination with Plk1 inhibitors for the treatment of cancer” (UNIVERSITY OF KENTUCKY RESEARCH FOUNDATION, priority 2021, dated 2026).

Series [1] deals with Wnt signaling target genes c-Myc and axin2. The series is described as follows: Western blotting of Wnt signaling target genes in LS174T cells. Conditions: 24 hours. The format is cell-based. As for the experimental part:
(§1) Western blotting were performed according to previous procedures (25). Cells were split into 12-well plates. After 24 hours, compounds at indicated final concentrations were added to each well for another 24 hours unless otherwise noted. DMSO was used as a control. Cells were lysed in the appropriate volume of lysis buffer: 50 mM HEPES, 100 mM NaCl, 2 mM EDTA, 1% (v/v) glycerol, 50 mM NaF, 1 mM Na3VO4, 1% (v/v) Triton X-100, with protease inhibitors. Cell lysates were centrifuged, and supernatants were mixed with 6× protein loading buffer and boiled. The obtained samples were analyzed with standard western blotting methods with indicated antibodies.

The next series relates to LS174T cells. The series is described as follows: Cell proliferation inhibition assay (5 days, cell counting). The format is cell-based. As for the experimental part: (§2) Cell proliferation inhibition assays were done following a previous report (32). Cancer cells were seeded into 24-well plates at a density of 20,000 cells per well in 1 mL of culture medium and were cultured overnight at 37° C. Compounds and the vehicle control (DMSO) were added to the cells. After 5 days, the medium was removed, and 100 μL of trypsin was added. The cells were resuspended in phosphate-buffered saline (PBS) and were counted by Vi-CELL XR 2.03 (Beckman Coulter, Inc. USA). The ratio R of the number of viable cells in the compound treatment group to the number of viable cells in DMSO treatment group was taken as relative growth, and the percentage growth inhibition was calculated as (1−R)*100.

Series [2] deals with sarcoma cell line SK-LMS-1. Nature of the series: Cell proliferation inhibition assay. Conditions: SK-LMS-1, 5 days (FIG. 1B). The format is cell-based. As for the experimental part: as §2
In series [3] the test system is liver cancer cell line HepG2. Nature of the series: Cell proliferation inhibition assay. Conditions: HepG2, 5 days (FIG. 1B). The format is cell-based. As for the experimental part: as §2
Series [4] concerns prostate cancer cell line PC-3. Nature of the series: Cell proliferation inhibition assay. The format is cell-based. Conditions: PC-3, 5 days (FIG. 1B). As for the experimental part: as §2
Series [5] concerns mouse colon cancer organoids. Nature of the series: Colon cancer organoids from Apc^f/+/Kras^LSL-G12D/Villin-Cre mouse model. The format is cell-based. As for the experimental part: The colon cancer organoids were isolated from Apc^f/+/Kras^LSL-G12D/Villin-Cre mouse model (38). Using 48-well drug screening to assess how compounds affected organoid colony formation, the Matrigel containing organoids was digested by 300 μL dispase. The gel was removed by 1,000×5 min spinning. The organoids were digested into single cells by 1 mL Trypsin and washed with 10 mL of ADF12. For each well, 80 μL of Matrigel was added to the bottom and 1000 cells in 60 μL Matrigel were added to the top. The cells were cultured in 250 μL of 3D complete medium (Advanced DMEM/F12 supplemented with 1×N-2, 1×B-27, 1 mM N-acetylcysteine and 1% penicillin/streptomycin). The cells were treated with DMSO or testing compounds and total number of organoids with diameter greater than 50 μm were analyzed and manually counted using microscope.
After 3 days when organoids formed, fresh culture media were supplied, and compounds were added for additional 3 days. Organoid viability was measured using CellTiter-Glo® 3D Cell Viability Assay (Promega) following manufacturer's protocol.

Series [6] concerns mitochondrial ETC complex I. The series is described as follows: Mitochondrial ETC complex activity measurements using PMP-permeabilized cells. The format is cell-based. As for the experimental part:
Mitochondrial ETC complex activity measurements were taken using the Agilent Seahorse Assay with XF PMP (Agilent, Santa Clara, CA) following manufacturer's instructions. Adherent monolayer cells were gently washed with mitochondrial assay solution (MAS) (220 mM mannitol, 70 mM sucrose, 10 mM KH2PO4, 5 mM MgCl2, 2 mM HEPES, 1 mM EGTA, and 0.2% (w/v) fatty acid free BSA) and cell growth media was replaced with MAS supplemented with 4 mM adenosine diphosphate (ADP), 10 mM pyruvate, and 1 nM PMP. Following calibration, the assay was immediately performed by measuring baseline with two cycles of 0.5 min mixing, 0.5 min waiting, and 2 min measuring. After baseline measurements, sequential injections of DMSO, compounds of interest or 2 μM rotenone, 10 mM succinate, 2 μM antimycin A, and a combination of 10 mM ascorbate and 100 μM TMPD were also performed with each followed by two cycles of 0.5 min mixing, 0.5 min waiting, and 2 min measuring. Data were then normalized to cell counts using the Biotek Cytation 1 (BioTek Instruments, Winooski, VT, USA).

The test system of series [7] is AMPK. Nature of the series: AMPK activation (western blotting, pAMPK/pACC) in LS174T cells. The format is cell-based. As for the experimental part: as §1
For series [8], the system named is AMPK. Nature of the series: AMPK signaling (western blotting) in Beas-2B cells. The format is cell-based. Conditions: compared with CRC cells. As for the experimental part: as §1
Series [9] concerns mitochondrial ETC (electron transport chain). Nature of the series: Seahorse assay (OCR) in LS174T cells. The format is cell-based. As for the experimental part:
(§3) Seahorse assays were carried out following a published procedure (25). Briefly, 2.5×10^4 cells in 80 μL of medium were seeded in XF96 Cell Culture microplate for all experiments. On the next day, cell culture media were replaced with Seahorse XF modified media. Cells were treated with 1 μM of oligomycin A, 1.0 μM FCCP and mixture of 1.0 μM of rotenone and 1.0 μM of antimycin A in standard mitochondrial stress test conditions. To determine the uncoupler effects, FCCP was replaced with an equal volume of DMSO, or a compound to be tested in DMSO solution.

The next series relates to Plk1. Nature of the series: Western blotting of cell signaling pathways in LS174T cells. The format is cell-based. The settings on record: LS174T colon cancer cells, 24 hours. As for the experimental part:
as §1

Another series can be described thus: Solubility comparison. The format is physicochemical. Conditions: relative comparison.
The subject of series [10] is mitochondrial ETC (electron transport chain). The series is described as follows: Seahorse assay (OCR) in Beas-2B cells. The format is cell-based. As for the experimental part:
as §3

As for `CN(C)c1ccc2cc(-c3cn(C)c4ccccc34)c(N)nc2c1` [ISQ-1, N^7,N^7-Dimethyl-3-(1-methyl-1H-indol-3-yl)quinoline-2,7-diamine], in [1], the “effect on Wnt signaling target genes c-Myc and axin2” value is on record as “inhibited”. Besides, in the series with LS174T cells (500 nM), the “percentage inhibition of LS174T cell proliferation at 500 nM, compared among ISQs (FIG. 2B)” value is “more active”. In the series with LS174T cells (Homo sapiens, LS174T, 120 h, 62 nM, 5 days), this molecule gave an inhibition at 0.062 µM of 16 ± 2%. Further, the inhibition at 0.125 µM with LS174T cells (Homo sapiens, LS174T, 120 h, 125 nM, 5 days) came to 22 ± 5%. Further, the inhibition at 0.25 µM in the series on LS174T cells (Homo sapiens, LS174T, 120 h, 250 nM, 5 days) worked out at 38 ± 2.2%. In the series with LS174T cells (Homo sapiens, LS174T, 120 h, 500 nM, 5 days), this molecule came in with an inhibition at 0.5 µM of 91 ± 4.3%. Moreover, the inhibition at 0.3 µM in the series on LS174T cells (Homo sapiens, LS174T, read-out: Inhibition % on LS174T cells Proliferation 0.3 uM Inhib. %) was 83.9%. Moreover, the inhibition at 1 µM with LS174T cells (Homo sapiens, LS174T, read-out: Inhibition % on LS174T cells Proliferation 1 uM Inhib. %) was 92.7%. The inhibition at 3 µM with LS174T cells (Homo sapiens, LS174T, read-out: Inhibition % on LS174T cells Proliferation 3 uM Inhib. %) stood at 99.3%. Moreover, the “inhibited in vitro cell growth” value is listed as “nanomolar concentrations” in the series with LS174T cells (LS174T, 5 days (FIG. 1B)); “nanomolar concentrations” in [2]; “nanomolar concentrations” in [3]; “nanomolar concentrations” in [4]. In series [5] (3-day treatment after organoids formed), the “organoid growth (CellTiter-Glo 3D viability)” value was “inhibited organoid growth in a dose-dependent manner”. For the same molecule, the “tumor organoid formation from single cells” value in series [5] (day 7) is “inhibited tumor organoid formation from single cells”. The “ETC complex I inhibition (pyruvate/NADH-linked respiration)” value in series [6] (pyruvate substrate) was “inhibited complex I”. The “inhibition of complexes II, III, or IV (respiration after succinate)” value in series [6] (succinate added) is recorded as “ruled out the possibility that ISQ-1 inhibited complexes II, III, or IV”. Besides, the AMPK activation result in the series with AMPK [7] is listed as “activated AMPK in a dose-dependent manner”. Besides, the AMPK signaling activation entry in the series on AMPK [8] was “less effective in activating AMPK signaling”. Besides, the “ETC complex V inhibition (oligomycin replaced with compound)” value in series [9] and in series [10] was “did not inhibit ETC complex V” in each case. Also, the “Plk1 expression upon drug treatment” value in the series on Plk1 is on record as “induced”. Further, the solubility result in “Solubility comparison” is “better than that of ISQ-7”. The “uncoupler effect (FCCP replaced with compound)” value in series [10] is “no uncouplers”.
